# Tested on: up to 32 different microorganisms
# Assay: in vitro antibacterial activity (MIC), agar dilution on Brain Heart Infusion (BHI) agar with Steers replicator
# Format: cell-based
# Conditions: unit assumed
# Procedure, shortened: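 MIC read visually: lowest drug level with no growth, slight haze or sparsely isolated colonies on the inoculum spot relative to drug-free control. Serial aqueous compound dilutions in BHI agar, 1:100 inoculum (1:10 slow strains), 20 to 24 hours at 35°-37° C.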
# [1] = Candida albicans CCH 442 (code TT)
# [2] = Enterococcus faecism ATCC 8043 (code II)
# [3] = Escherichia coli DC-2 (code SS)
# [4] = Escherichia coli JUHL (code QQ)
# [5] = Haemophilis influenzae DILL AMP R (code WW)
# [6] = Micrococcus luteus ATCC 4698 (code PP)
# [7] = Micrococcus luteus ATCC 9341 (code OO)
# [8] = Mycobacterium smegmatis ATCC 114 (code UU)
# [9] = Nocardia Asteroides ATCC9970 (code VV)
# [10] = Staphylococcus aureus 1775 (code GG)
# [11] = Staphylococcus aureus A5177 (code BB)
# [12] = Staphylococcus aureus A-5278 (code CC)
# [13] = Staphylococcus aureus ATCC 6538P (code AA)
# [14] = Staphylococcus aureus CMX 553 (code FF)
# [15] = Staphylococcus aureus CMX 642A (code DD)
# [16] = Staphylococcus aureus NCTC10649M (code EE)
# [17] = Staphylococcus epidermidis 3519 (code HH)
# [18] = Streptococcus Pneumonia 5649 (code ZZA)
# [19] = Streptococcus Pneumonia 5979 (code ZZ)
# [20] = Streptococcus Pneumonia ATCC6303 (code XX)
# [21] = Streptococcus Pneumonia GYR 1171 (code YY)
# [22] = Streptococcus agalactiae CMX 508 (code KK)
# [23] = Streptococcus bovis A-5169 (code JJ)
# [24] = Streptococcus pyogenes 930 (code MM)
# [25] = Streptococcus pyogenes EES61 (code LL)
# [26] = Streptococcus pyogenes PIU 2548 (code NN)
structure (smiles),measurement,setting,value
"CC[C@H]1OC(=O)[C@H](C)C(=O)[C@H](C)[C@@H](O[C@@H]2O[C@H](C)C[C@H](N(C)C)[C@H]2O)[C@@](C)(OCC=NOCc2ccc3ccccc3c2)C[C@@H](C)C(=O)[C@H](C)[C@H]2NC(=O)O[C@@]21C [Example 236, Compound of Formula (IX): L is CO, T is NH, R is —CH2CH═NOCH2(2-naphthyl)]",MIC,organism code AA,0.2 mg/L
same,MIC,organism code BB,0.2 mg/L
same,MIC,organism code CC,> 100 mg/L
same,MIC,organism code DD,0.2 mg/L
same,MIC,organism code EE,0.2 mg/L
same,MIC,organism code FF,0.2 mg/L
same,MIC,organism code GG,> 100 mg/L
same,MIC,organism code HH,0.2 mg/L
same,MIC,organism code II,0.05 mg/L
same,MIC,organism code JJ,0.05 mg/L
same,MIC,organism code KK,0.05 mg/L
same,MIC,organism code LL,0.01 mg/L
same,MIC,organism code MM,25 mg/L
same,MIC,organism code NN,0.2 mg/L
same,MIC,organism code OO,0.05 mg/L
same,MIC,organism code PP,0.1 mg/L
same,MIC,organism code QQ,50 mg/L
same,MIC,organism code RR,0.39 mg/L
same,MIC,organism code SS,> 100 mg/L
same,MIC,organism code TT,> 100 mg/L
same,MIC,organism code UU,0.39 mg/L
same,MIC,organism code VV,0.2 mg/L
same,MIC,organism code WW,4 mg/L
same,MIC,organism code XX,0.03 mg/L
same,MIC,organism code YY,0.03 mg/L
same,MIC,organism code ZZ,32 mg/L
"CCC1OC(=O)C(C)C(=O)C(C)C(OC2OC(C)CC(N(C)C)C2O)C(C)(OCC=Cc2ccc3cc(OCCBr)ccc3c2)CC(C)C(=O)C(C)C2NC(=O)OC12C (centres unmarked) [Example 288, Compound of Formula (IX): L is CO, T is NH2, R is —CH2CH═CH-(6-(2-bromoethoxy)-2-naphthyl)]",MIC,organism code AA,0.1 mg/L
same,MIC,organism code BB,0.2 mg/L
same,MIC,organism code CC,> 100 mg/L
same,MIC,organism code DD,0.39 mg/L
same,MIC,organism code EE,0.39 mg/L
same,MIC,organism code FF,0.39 mg/L
same,MIC,organism code GG,100 mg/L
same,MIC,organism code HH,0.39 mg/L
same,MIC,organism code II,0.39 mg/L
same,MIC,organism code JJ,0.01 mg/L
same,MIC,organism code KK,0.02 mg/L
same,MIC,organism code LL,0.1 mg/L
same,MIC,organism code MM,12.5 mg/L
same,MIC,organism code NN,0.39 mg/L
same,MIC,organism code OO,0.02 mg/L
same,MIC,organism code PP,0.39 mg/L
same,MIC,organism code QQ,> 100 mg/L
same,MIC,organism code RR,3.1 mg/L
same,MIC,organism code SS,> 100 mg/L
same,MIC,organism code TT,> 100 mg/L
same,MIC,organism code UU,0.39 mg/L
same,MIC,organism code VV,0.39 mg/L
same,MIC,organism code WW,8 mg/L
same,MIC,organism code XX,0.125 mg/L
same,MIC,organism code YY,0.125 mg/L
same,MIC,organism code ZZ,16 mg/L
same,MIC,organism code ZZA,1 mg/L
"CCC1OC(=O)C(C)C(=O)C(C)C(OC2OC(C)CC(N(C)C)C2O)C(C)(OCC=Cc2ccc(-n3cccc3)cc2)CC(C)C(=O)C(C)C2NC(=O)OC12C (centres unmarked) [Example 282, Compound of Formula (IX): L is CO, T is NH2, R is —CH2CH═CH-(4-pyrrolylphenyl)]",MIC,organism code AA,0.2 mg/L
same,MIC,organism code BB,0.1 mg/L
same,MIC,organism code CC,100 mg/L
same,MIC,organism code DD,0.2 mg/L
same,MIC,organism code EE,0.2 mg/L
same,MIC,organism code FF,0.1 mg/L
same,MIC,organism code GG,100 mg/L
same,MIC,organism code HH,0.2 mg/L
same,MIC,organism code II,0.05 mg/L
same,MIC,organism code JJ,0.01 mg/L
same,MIC,organism code KK,≤ 0.005 mg/L
same,MIC,organism code LL,≤ 0.005 mg/L
same,MIC,organism code MM,25 mg/L
same,MIC,organism code NN,0.1 mg/L
same,MIC,organism code OO,0.05 mg/L
same,MIC,organism code PP,0.2 mg/L
same,MIC,organism code QQ,> 100 mg/L
same,MIC,organism code RR,0.78 mg/L
same,MIC,organism code SS,> 100 mg/L
same,MIC,organism code TT,> 100 mg/L
same,MIC,organism code UU,1.56 mg/L
same,MIC,organism code VV,0.2 mg/L
same,MIC,organism code WW,8 mg/L
same,MIC,organism code XX,0.03 mg/L
same,MIC,organism code YY,0.03 mg/L
same,MIC,organism code ZZ,36 mg/L
same,MIC,organism code ZZA,0.25 mg/L
"CC[C@H]1OC(=O)[C@H](C)C(=O)[C@H](C)[C@@H](O[C@@H]2O[C@H](C)C[C@H](N(C)C)[C@H]2O)[C@@](C)(OCC=NO)C[C@@H](C)C(=O)[C@H](C)[C@@H](O)[C@]1(C)O [Example 5, Compound of Formula (VIII): X is O, R is —CH2CH═NOH]",MIC,[1],> 100 mg/L
same,MIC,[2],6.2 mg/L
same,MIC,[3],> 100 mg/L
same,MIC,[4],> 100 mg/L
same,MIC,Escherichia coli SS (code RR),6.2 mg/L
same,MIC,[5],> 128 mg/L
same,MIC,[6],6.2 mg/L
same,MIC,[7],0.78 mg/L
same,MIC,[8],> 100 mg/L
same,MIC,[9],6.2 mg/L
same,MIC,[10],> 100 mg/L
same,MIC,[11],6.2 mg/L
same,MIC,[12],> 100 mg/L
same,MIC,[13],6.2 mg/L
same,MIC,[14],12.5 mg/L
same,MIC,[15],12.5 mg/L
same,MIC,[16],12.5 mg/L
same,MIC,[17],6.2 mg/L
same,MIC,[18],16 mg/L
same,MIC,[19],> 128 mg/L
same,MIC,[20],8 mg/L
same,MIC,[21],4 mg/L
same,MIC,[22],1.56 mg/L
same,MIC,[23],1.56 mg/L
same,MIC,[24],> 100 mg/L
same,MIC,[25],3.1 mg/L
same,MIC,[26],6.2 mg/L
"CC[C@H]1OC(=O)[C@H](C)C(=O)[C@H](C)[C@@H](O[C@@H]2O[C@H](C)C[C@H](N(C)C)[C@H]2O)[C@@](C)(OCC=Cc2cnc3ccccc3c2)C[C@@H](C)C(=O)[C@H](C)[C@H]2OC(=O)O[C@@]21C [Example 75, Compound of Formula (IX): L is CO, T is O, R is —CH2CH═CH-(3-quinolyl)]",MIC,[1],100 mg/L
same,MIC,[2],0.1 mg/L
same,MIC,[3],> 100 mg/L
same,MIC,[4],50 mg/L
same,MIC,Escherichia coli SS (code RR),0.39 mg/L
same,MIC,[5],2 mg/L
same,MIC,[6],0.2 mg/L
same,MIC,[7],0.02 mg/L
same,MIC,[8],0.39 mg/L
same,MIC,[9],0.05 mg/L
same,MIC,[10],> 100 mg/L
same,MIC,[11],0.1 mg/L
same,MIC,[12],> 100 mg/L
same,MIC,[13],0.1 mg/L
same,MIC,[14],0.1 mg/L
same,MIC,[15],0.1 mg/L
same,MIC,[16],0.1 mg/L
same,MIC,[17],0.1 mg/L
same,MIC,[18],0.5 mg/L
same,MIC,[19],64 mg/L
same,MIC,[20],0.03 mg/L
same,MIC,[21],0.03 mg/L
same,MIC,[22],0.01 mg/L
same,MIC,[23],< 0.005 mg/L
same,MIC,[24],3.1 mg/L
same,MIC,[25],0.02 mg/L
same,MIC,[26],0.1 mg/L
"C#CCOC1(C)CC(C)C(=O)C(C)C2NC(=O)OC2(C)C(CC)OC(=O)C(C)C(=O)C(C)C1OC1OC(C)CC(N(C)C)C1O (centres unmarked) [Example 246, Compound of Formula (IX): L is CO, T is NH, R is —CH2CH≡C—H]",MIC,organism code AA,0.78 mg/L
same,MIC,organism code BB,0.78 mg/L
same,MIC,organism code CC,> 100 mg/L
same,MIC,organism code DD,0.78 mg/L
same,MIC,organism code EE,0.78 mg/L
same,MIC,organism code FF,0.78 mg/L
same,MIC,organism code GG,> 100 mg/L
same,MIC,organism code HH,0.78 mg/L
same,MIC,organism code II,0.2 mg/L
same,MIC,organism code JJ,0.1 mg/L
same,MIC,organism code KK,0.2 mg/L
same,MIC,organism code LL,0.2 mg/L
same,MIC,organism code MM,> 100 mg/L
same,MIC,organism code NN,0.39 mg/L
same,MIC,organism code OO,0.2 mg/L
same,MIC,organism code PP,0.78 mg/L
same,MIC,organism code QQ,> 100 mg/L
same,MIC,organism code RR,0.78 mg/L
same,MIC,organism code SS,> 100 mg/L
same,MIC,organism code TT,> 100 mg/L
same,MIC,organism code UU,50 mg/L
same,MIC,organism code VV,0.78 mg/L
same,MIC,organism code WW,16 mg/L
same,MIC,organism code XX,0.25 mg/L
same,MIC,organism code YY,0.125 mg/L
same,MIC,organism code ZZ,> 128 mg/L
same,MIC,organism code ZZA,0.5 mg/L
"CC[C@H]1OC(=O)[C@H](C)C(=O)[C@H](C)[C@@H](O[C@@H]2O[C@H](C)C[C@H](N(C)C)[C@H]2O)[C@@](C)(OCC=Cc2ccc(Cl)cc2)C[C@@H](C)C(=O)[C@H](C)[C@@H](O)[C@]1(C)O [Example 17, Compound of Formula (VIII): X is O, R is —CH2CH═CH-(4-chlorophenyl)]",MIC,[1],50 mg/L
same,MIC,[2],1.56 mg/L
same,MIC,[3],> 100 mg/L
same,MIC,[4],> 100 mg/L
same,MIC,Escherichia coli SS (code RR),12.5 mg/L
same,MIC,[5],64 mg/L
same,MIC,[6],0.78 mg/L
same,MIC,[7],0.39 mg/L
same,MIC,[8],3.1 mg/L
same,MIC,[9],3.1 mg/L
same,MIC,[10],50 mg/L
same,MIC,[11],1.56 mg/L
same,MIC,[12],50 mg/L
same,MIC,[13],1.56 mg/L
same,MIC,[14],1.56 mg/L
same,MIC,[15],1.56 mg/L
same,MIC,[16],1.56 mg/L
same,MIC,[17],1.56 mg/L
same,MIC,[18],2 mg/L
same,MIC,[19],32 mg/L
same,MIC,[20],1 mg/L
same,MIC,[21],0.5 mg/L
same,MIC,[22],0.78 mg/L
same,MIC,[23],0.39 mg/L
same,MIC,[24],25 mg/L
same,MIC,[25],0.78 mg/L
same,MIC,[26],0.78 mg/L
